In publication PMC9679999, “A Useful Guide to Lectin Binding: Machine-Learning Directed Annotation of 57 Unique Lectin Specificities” (ACS Chemical Biology, 2022):

How the values were obtained:
Assay type in all cases: binding
[1] = molecular target: Marasmius oreades agglutinin (MOA) (Marasmius oreades, UniProt Q8X123); assay: CFG glycan microarray v5, biotinylated lectin, Cy5-streptavidin
[2] = molecular target: T1, Cholera Toxin B Subunit (CTB) (Vibrio cholerae, UniProt P01556)
T1 construct: gene ctxB

[3] = molecular target: T2, Psophocarpus tetragonolobus lectin-I (PTL-I/PTA-I) (Psophocarpus tetragonolobus, UniProt O24313); assay: CFG glycan microarray v5, biotinylated lectin, Cy5-streptavidin
T2 construct: gene WBAI
T2 sequence (O24313 1-242): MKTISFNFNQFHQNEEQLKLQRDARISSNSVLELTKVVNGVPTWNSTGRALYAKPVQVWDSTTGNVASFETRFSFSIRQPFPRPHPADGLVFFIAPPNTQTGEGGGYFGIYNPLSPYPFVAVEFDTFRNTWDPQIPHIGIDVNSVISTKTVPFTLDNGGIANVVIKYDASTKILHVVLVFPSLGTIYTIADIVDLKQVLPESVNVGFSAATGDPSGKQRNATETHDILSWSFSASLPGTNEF

[4] = molecular target: T3, Hippeastrum hybrid Lectin (HHA, HHL) (Hippeastrum hybrid cultivar, UniProt Z9FHC8O5N0); assay: as above
T3 construct: commercial lectin (EY and Vector), biotinylated
T3 sequence (Z9FHC8O5N0 1-108): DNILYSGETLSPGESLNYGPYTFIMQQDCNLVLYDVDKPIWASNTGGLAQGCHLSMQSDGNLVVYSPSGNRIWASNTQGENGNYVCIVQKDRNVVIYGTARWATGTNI

T1 sequence (P01556 22-124 limits assumed): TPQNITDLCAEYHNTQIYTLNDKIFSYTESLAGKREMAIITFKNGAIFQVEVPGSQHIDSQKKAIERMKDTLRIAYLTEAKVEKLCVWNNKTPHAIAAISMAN
Chain of Marasmius oreades agglutinin (MOA) (Q8X123 entry or part of it): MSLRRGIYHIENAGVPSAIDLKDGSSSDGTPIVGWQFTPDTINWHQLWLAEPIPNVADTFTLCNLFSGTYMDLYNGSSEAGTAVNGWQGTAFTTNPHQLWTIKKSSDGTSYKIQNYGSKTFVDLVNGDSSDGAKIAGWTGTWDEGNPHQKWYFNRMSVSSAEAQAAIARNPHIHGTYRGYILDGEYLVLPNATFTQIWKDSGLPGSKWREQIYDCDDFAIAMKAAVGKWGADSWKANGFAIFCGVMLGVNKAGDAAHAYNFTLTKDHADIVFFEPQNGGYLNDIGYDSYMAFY

## C[C@@H]1O[C@@H](O[C@H]2C(O)O[C@H](CO)[C@H](O)[C@@H]2O[C@H]2O[C@H](CO)[C@H](O)[C@H](O)[C@H]2O)[C@@H](O)[C@H](O)[C@@H]1O (stereo partly shown) [B trisaccharide]
[1]
  CFG glycan microarray v5, biotinylated lectin, Cy5-streptavidin: This motif lies within the B trisaccharide, which is preferentially bound by this lectin

## CC(=O)N[C@H]1[C@H](O[C@@H]2[C@H](O[C@]3(C(=O)O)C[C@H](O)[C@@H](NC(C)=O)[C@H]([C@H](O)[C@H](O)CO)O3)[C@@H](O)[C@H](O[C@H]3[C@H](O)[C@@H](O)C(O)O[C@@H]3CO)O[C@@H]2CO)O[C@H](CO)[C@H](O)[C@@H]1O[C@@H]1O[C@H](CO)[C@H](O)[C@H](O)[C@H]1O (stereo partly shown) [GM1]
[2]
  CFG glycan microarray v5, biotinylated lectin, Cy5-streptavidin: Our analysis found only two glycan binders, GM1 and fucosylated GM1

## CC(=O)N[C@H]1[C@@H](O[C@H]2[C@@H](O)[C@@H](CO)OC(O)[C@@H]2O[C@@H]2O[C@@H](C)[C@@H](O)[C@@H](O)[C@@H]2O)O[C@H](CO)[C@H](O)[C@@H]1O (stereo partly shown) [blood group A trisaccharide]
[3]
  CFG glycan microarray v5, biotinylated lectin, Cy5-streptavidin: we found blood group A trisaccharides

## OC[C@H]1O[C@H](OC[C@H]2OC(O)[C@@H](O)[C@@H](O[C@H]3O[C@H](CO)[C@@H](O)[C@H](O)[C@@H]3O)[C@@H]2O)[C@@H](O)[C@@H](O)[C@@H]1O (stereo partly shown) [mannose core trisaccharide]
[4]
  CFG glycan microarray v5, biotinylated lectin, Cy5-streptavidin: This lectin shows the highest affinity for the mannose core trisaccharide
